These results are taken from patent US5024994A, “Renin inhibitors IV” (Warner-Lambert Company, priority 1988, dated 1991).

For one assay, the target named is T1, renin (Homo sapiens, UniProt P00797).
T1 sequence (P00797 67-406): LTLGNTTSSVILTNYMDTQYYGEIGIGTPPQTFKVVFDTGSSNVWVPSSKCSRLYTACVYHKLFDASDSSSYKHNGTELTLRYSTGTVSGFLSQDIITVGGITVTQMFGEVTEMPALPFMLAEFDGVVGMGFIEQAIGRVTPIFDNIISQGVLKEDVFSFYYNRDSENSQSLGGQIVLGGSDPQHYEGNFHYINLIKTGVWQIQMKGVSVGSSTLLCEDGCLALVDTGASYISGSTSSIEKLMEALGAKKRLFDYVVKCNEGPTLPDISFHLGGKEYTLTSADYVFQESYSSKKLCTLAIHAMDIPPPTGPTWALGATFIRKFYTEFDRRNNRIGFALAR
Nature of the assay: in vitro renin inhibitory activity, radioimmunoassay for angiotensin I. It counts as biochemical.
Settings: not given
The protocol: The effectiveness of the aforementioned compounds is determined by a test for in vitro renin inhibitory activity. This activity is determined by a standard radioimmunoassay for angiotensin I. In this assay the enzyme, renin, incubated for two hours at 37° in the presence of a substrate, angiotensinogen, generates the product, angiotensin I. Test compounds are added to the incubation mixture.
As for `CNC(=S)NCCCC[C@H](NC(=O)C(Cc1ccccc1)CS(=O)(=O)C(C)(C)C)C(=O)N[C@@H](CC1CCCCC1)[C@@H](O)CC(=O)NCCN1CCOCC1` (some centres unmarked), the IC50 came out at 27 nM. Same read-out and setting: next, `CCC(C)CNC(=O)C[C@H](O)[C@H](CC(C)C)NC(=O)C(CCCCCNC(=N)N[N+](=O)[O-])NC(=O)C(Cc1cccc2ccccc12)Cc1cccc2ccccc12` (some centres unmarked): 26 nM; `CCC(C)CNC(=O)C[C@H](O)[C@H](CC(C)C)NC(=O)[C@H](CCCCNC(=NC#N)SC)NC(=O)C(Cc1cccc2ccccc12)Cc1cccc2ccccc12` (some centres unmarked): 19 nM; `CC(C)C[C@H](NC(=O)C[C@H](O)[C@H](CC(C)C)NC(=O)C(CCCC1CO1)NC(=O)C(Cc1cccc2ccccc12)Cc1cccc2ccccc12)C(=O)NCc1ccccc1` (single isomer, unassigned) [drawing 65]: 57 nM. Same read-out and setting: the result for `CCC(C)CNC(=O)C[C@H](O)[C@H](CC(C)C)NC(=O)[C@H](CC#N)NC(=O)[C@H](Cc1ccccc1)NC(=O)OC(C)(C)C` (some centres unmarked) reads 260 nM.

Staying with this assay, now noted: at 10^-6 molar concentration; read-out: percent inhibition of renin activity.
`CC(C)C[C@H](NC(=O)C[C@H](O)[C@H](CC(C)C)NC(=O)C(CCCC1CO1)NC(=O)C(Cc1cccc2ccccc12)Cc1cccc2ccccc12)C(=O)NCc1ccccc1` (single isomer, unassigned) [drawing 66]: the inhibition at 1 µM was 47%.

The assay is the same for the next values; noted with them: read-out: IC50.
In the case of `CC(C)C[C@H](NC(=O)[C@H](CCCCNC(=N)N[N+](=O)[O-])NC(=O)C(Cc1cccc2ccccc12)Cc1cccc2ccccc12)[C@@H](O)CC(=O)NCCN1CCOCC1`, the IC50 amounted to 45 nM. Turning to `CC(C)C[C@H](NC(=O)C[C@H](O)[C@H](CC(C)C)NC(=O)C(CCCCCCNC(=O)OCc1ccccc1)NC(=O)C(Cc1cccc2ccccc12)Cc1cccc2ccccc12)C(=O)NCc1ccccc1` (some centres unmarked), the IC50 was found to be 59 nM. Same read-out and setting: the result for `CCC(C)CNC(=O)C[C@H](O)[C@H](CC1CCCCC1)NC(=O)[C@H](CCCCNC(=N)N[N+](=O)[O-])NC(=O)C(Cc1cccc2ccccc12)Cc1cccc2ccccc12` (some centres unmarked) reads 15 nM; that for `CC[C@H](C)CNC(=O)C[C@H](O)[C@H](CC(C)C)NC(=O)[C@H](CCCNC(=S)NC)NC(=O)C(Cc1cccc2ccccc12)Cc1cccc2ccccc12`, 280 nM; that for `CC[C@H](C)CNC(=O)C[C@H](O)[C@H](CC(C)C)NC(=O)[C@H](CCCCNC(=O)C[S+](C)[O-])NC(=O)C(Cc1cccc2ccccc12)Cc1cccc2ccccc12` (some centres unmarked), 41 nM. The same measure, in the same setting: next, `CCCCNC(=S)NCCCC[C@H](NC(=O)C(Cc1cccc2ccccc12)Cc1cccc2ccccc12)C(=O)N[C@@H](CC(C)C)[C@@H](O)CC(=O)NC[C@@H](C)CC`: 46 nM; `CCC(C)CNC(=O)C[C@H](O)[C@H](CC(C)C)NC(=O)[C@H](CCCCNC(=NC#N)NC)NC(=O)C(Cc1cccc2ccccc12)Cc1cccc2ccccc12` (some centres unmarked): 15 nM. Still for that read-out and setting: the result for `C=CCCCC(NC(=O)C(Cc1cccc2ccccc12)Cc1cccc2ccccc12)C(=O)N[C@@H](CC(C)C)[C@@H](O)CC(=O)N[C@@H](CC(C)C)C(=O)NCc1ccccc1` (single isomer, unassigned; isomer b) [Example 49, DNMA-NHCH(CH2 CH2 CH2 CH=CH2)CO-STA-LEU-NHCH2 Ph (ISOMER B)] reads 3500 nM; that for `CSC(=NC#N)NCCCC[C@H](NC(=O)C(Cc1cccc2ccccc12)Cc1cccc2ccccc12)C(=O)N[C@@H](CC(C)C)[C@@H](O)CC(=O)NCCN1CCOCC1`, 90 nM.

Regarding `CNC(=S)NCCCC[C@H](NC(=O)C(Cc1cccc2ccccc12)Cc1cccc2ccccc12)C(=O)N[C@@H](CC1CCCCC1)[C@@H](O)CC(=O)NCCN1CCOCC1`, the IC50 was 29 nM.

As to `CCCCNC(=S)NCCCC[C@H](NC(=O)C(Cc1cccc2ccccc12)Cc1cccc2ccccc12)C(=O)N[C@@H](CC(C)C)[C@@H](O)CC(=O)NCC(C)CC` (some centres unmarked), the IC50 came to 58 nM. Same read-out and setting: next, `CCC(C)CNC(=O)C[C@H](O)[C@H](CC(C)C)NC(=O)[C@H](CCCCNC(=O)NC)NC(=O)C(Cc1cccc2ccccc12)Cc1cccc2ccccc12` (some centres unmarked): 29 nM. On the same count and under the same terms, the result for `CC(=O)NCC#CCC(NC(=O)C(Cc1cccc2ccccc12)Cc1cccc2ccccc12)C(=O)N[C@@H](CC1CCCCC1)[C@@H](O)CC(=O)NCCN1CCOCC1` (some centres unmarked) reads 8.6 nM; that for `CCOC(=O)C(NC(=O)C(Cc1cccc2ccccc12)Cc1cccc2ccccc12)C(=O)N[C@@H](CC(C)C)[C@@H](O)CC(=O)N[C@@H](CC(C)C)C(=O)NCc1ccccn1` (some centres unmarked), 13 nM. On the same count and under the same terms, next, `CCC(C)CNC(=O)C[C@H](O)[C@H](CC(C)C)NC(=O)C(C/C=C\CNC(C)=O)NC(=O)C(Cc1cccc2ccccc12)Cc1cccc2ccccc12` (some centres unmarked): 100 nM. Consider `CCC(C)CNC(=O)C[C@H](O)[C@H](CC(C)C)NC(=O)C(NC(=O)C(Cc1cccc2ccccc12)Cc1cccc2ccccc12)C(=O)OC(C)C` (some centres unmarked), for which the IC50 is 33 nM. On the same count and under the same terms, next, `CC[C@H](C)CNC(=O)C[C@H](O)[C@H](CC(C)C)NC(=O)C(CC#N)NC(=O)[C@H](Cc1ccccc1)NC(=O)CC(C)C` (some centres unmarked): 570 nM. On the same count and under the same terms, next, `CCOC(=O)C(NC(=O)C(Cc1cccc2ccccc12)Cc1cccc2ccccc12)C(=O)N[C@@H](CC(C)C)[C@@H](O)CC(=O)NC[C@@H](C)CC` (some centres unmarked): 23 nM; `O=CNCC#CCC(NC(=O)C(Cc1cccc2ccccc12)Cc1cccc2ccccc12)C(=O)N[C@@H](CC1CCCCC1)[C@@H](O)CC(=O)NCCN1CCOCC1` (some centres unmarked): 8 nM. The same measure, in the same setting: the result for `CC(C)(C)OC(=O)NCC#CCC(NC(=O)C(Cc1cccc2ccccc12)Cc1cccc2ccccc12)C(=O)N[C@@H](CC1CCCCC1)[C@@H](O)CC(=O)NCCN1CCOCC1` (some centres unmarked) reads 700 nM. Regarding `CC[C@H](C)CNC(=O)C[C@H](O)[C@H](CC(C)C)NC(=O)C(CCCCCC(=O)NC)NC(=O)C(Cc1cccc2ccccc12)Cc1cccc2ccccc12` (some centres unmarked), the IC50 stood at 1200 nM. On the same count and under the same terms, the result for `CCC(C)CNC(=O)C[C@H](O)[C@H](CC(C)C)NC(=O)[C@H](CCCCNC(=S)NC(C)(C)CC)NC(=O)C(Cc1cccc2ccccc12)Cc1cccc2ccccc12` (some centres unmarked) reads 7.5 nM.

The assay is the same for the next values; noted with them: renin incubated two hours at 37° with angiotensinogen; molar concentration causing 50% inhibition; read-out: IC50.
Consider DNMA-LYS(Z)-STA-LEU-NHCH2 Ph, for which the IC50 stood at 2900 nM.

What is called IC50 is the concentration that inhibits the measured activity by half. One may read the inhibition as the change of the read-out against control, counted positive when it falls.
